# Patent US10266544B2, “Aryl substituted aminomethyl spectinomycin analogs as antibacterial agents” (ST. JUDE CHILDREN'S RESEARCH HOSPITAL, INC., priority 2013, dated 2019)
# Key:
# [1] = tested on: S. pneumoniae; assay: Resistance frequency determination and cross resistance of spontaneous mutants; format: cell-based, Streptococcus pneumoniae; conditions: cross resistance testing of 2 mutants
# [2] = tested on: S. pneumoniae D39x; assay: Mouse challenge, mouse model of lung infection; format: in vivo; conditions: 72 hours post challenge
# Description: Mice were treated with a 5 mg/kg dose b.i.d. of spectinomycin (indicated as “SPC” in the figure) or compound 2 (the compound number refers to the compound number and associated structure shown in Table 1), or vehicle. (Panel B) The bacterial burden of mice at 18 hours post-challenge with S. pneumoniae D39x. (Panel C) Representative bioluminescent images of mice at 72 hours post challenge.
# All experimental animal protocols were approved by the St. Jude Children's Research Hospital Institutional Animal Care and Use Committee. Seven week old, female BalbC/J mice (Jackson Labs, Bar Harbor, Me.) we utilized in these studies. All mice were maintained in BSL2 facilities and all experiments were done under inhaled isoflurane (2.5%). Bacteria (strain D39x) were introduced by intranasal administration of 2×10^7 CFU in 25 μL PBS. Mice received no treatment, plasmalyte A (vehicle control), ampicillin (100 mg/kg), spectinomycin (50, 25, 5 mg/kg) or the respective compounds (50, 25, 5 mg/kg) at dosages indicated. Antibiotics were administered in a volume of 100 μL by subcutaneous […] starting at 18 hours post challenge, a time point when the mice have developed pneumonia and bacteria have translocated into the bloodstream. Mice were subsequently dosed every 12 hours until 96 hours post challenge. Mice were monitored daily for signs of infection and weight loss. Differences in time to death were compared via Kaplan-Meier survival estimates. Bacterial density in blood was quantified at 24, 48, 72, and 96 hours post infection via blood collection, serial dilution, and plating. Groups were then compared by Mann-Whitney to determine statistical significance. At 8 days following challenge, surviving mice were euthanized and bacterial loads in lungs determined by homogenization followed by serial dilution and plating. In all instances, surviving mice had completely cleared bacteria from both the lungs and the bloodstream by this time point.
# Compound 2 was tested for anti-pneumococcal activity in mice as described above. […]
SMILES,susceptibility of mutants resistant to 2 [1],bioluminescent images of mice [2]
CC[C@H]1OC(=O)[C@H](C)[C@@H](O[C@H]2C[C@@](C)(OC)[C@@H](O)[C@H](C)O2)[C@H](C)[C@@H](O[C@@H]2O[C@H](C)C[C@H](N(C)C)[C@H]2O)[C@](C)(O)C[C@@H](C)C(=O)[C@H](C)[C@@H](O)[C@]1(C)O [erythromycin],susceptible,–
CC(=O)NC[C@H]1CN(c2ccc(N3CCOCC3)c(F)c2)C(=O)O1 [linezolid],susceptible,–
C[C@@H](O)[C@H]1C(=O)N2C(C(=O)O)=C(S[C@@H]3CN[C@H](C(=O)N(C)C)C3)[C@H](C)[C@H]12 [meropenem],susceptible,–
CN[C@@H]1[C@H](O)[C@H](NC)[C@H]2O[C@@]3(O)C(=O)C[C@@H](C)O[C@H]3O[C@@H]2[C@H]1O [spectinomycin],cross resistance,systemic bacterial infection
CN[C@H](CC(C)C)C(=O)N[C@H]1C(=O)N[C@@H](CC(N)=O)C(=O)N[C@H]2C(=O)N[C@H]3C(=O)N[C@H](C(=O)N[C@H](C(=O)O)c4cc(O)cc(O)c4-c4cc3ccc4O)[C@H](O)c3ccc(c(Cl)c3)Oc3cc2cc(c3O[C@@H]2O[C@H](CO)[C@@H](O)[C@H](O)[C@H]2O[C@H]2C[C@](C)(N)[C@H](O)[C@H](C)O2)Oc2ccc(cc2Cl)[C@H]1O [vancomycin],susceptible,–
